Data from ChEMBL document CHEMBL4364273, “Discovery of SHR1653, a Highly Potent and Selective OTR Antagonist with Improved Blood-Brain Barrier Penetration” (ACS Med Chem Lett, 2019).

Legend:
[1] = AUC (0 to 24 hrs) in Beagle dog at 2 mg/kg, po by LC-MS/MS analysis; type: ADME, organism-based, Canis lupus familiaris; parameters: time < 24 hr, dose 2 mg/kg, route oral; settings: in vivo
[2] = Half-life in Beagle dog at 2 mg/kg, po measured for 24 hrs by LC-MS/MS analysis; type: ADME, organism-based, Canis lupus familiaris; settings: in vivo
[3] = test system: Rattus norvegicus; assay: Anti-premature ejaculation activity in anesthetized oxytocin-induced uterine contraction Sprague-Dawley rat model assessed as decrease in intraluminal uterine pressure at 30 mg/kg, po treated for 20 mins and 1 hr later treated with oxytocin and measured for 15 to 30 mins relative to control; type: functional
[4] = Acute toxicity in rat assessed as effect on blood chemistry parameters up to 300 mg/kg measured for 7 days; type: organism-based; settings: in vivo, 168 h
[5] = target: Cytochrome P450 2D6 (Homo sapiens, UniProt P10635); assay: Inhibition of human recombinant CYP2D6; type: ADME
Sequence of Cytochrome P450 2D6 (P10635 whole entry): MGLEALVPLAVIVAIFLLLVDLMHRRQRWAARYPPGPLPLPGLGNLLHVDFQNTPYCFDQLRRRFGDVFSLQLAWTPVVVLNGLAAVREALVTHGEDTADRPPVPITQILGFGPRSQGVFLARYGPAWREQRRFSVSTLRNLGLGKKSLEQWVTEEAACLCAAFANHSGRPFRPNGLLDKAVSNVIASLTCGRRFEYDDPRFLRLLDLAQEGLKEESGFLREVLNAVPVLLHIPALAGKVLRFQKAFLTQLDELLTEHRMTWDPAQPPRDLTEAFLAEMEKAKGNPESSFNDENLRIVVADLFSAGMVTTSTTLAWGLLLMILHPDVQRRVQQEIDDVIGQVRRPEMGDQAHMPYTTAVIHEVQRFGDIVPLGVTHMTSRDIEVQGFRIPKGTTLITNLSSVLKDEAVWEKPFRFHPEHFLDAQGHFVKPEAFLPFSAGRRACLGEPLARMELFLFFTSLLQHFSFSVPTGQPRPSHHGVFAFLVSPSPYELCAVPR

[6] = Hepatic clearance in mouse liver microsomes by LC-MS/MS analysis; type: ADME, Microsome
[7] = Unbound brain-to-plasma concentration ratio in Sprague-Dawley rat by LC-MS/MS analysis; type: ADME, cell-free; settings: read-out: K(p,uu,brain)
[8] = target: T1, Cytochrome P450 1A2 (Homo sapiens, UniProt P05177); assay: Inhibition of human recombinant CYP1A2; type: ADME
T1 sequence (P05177 whole entry): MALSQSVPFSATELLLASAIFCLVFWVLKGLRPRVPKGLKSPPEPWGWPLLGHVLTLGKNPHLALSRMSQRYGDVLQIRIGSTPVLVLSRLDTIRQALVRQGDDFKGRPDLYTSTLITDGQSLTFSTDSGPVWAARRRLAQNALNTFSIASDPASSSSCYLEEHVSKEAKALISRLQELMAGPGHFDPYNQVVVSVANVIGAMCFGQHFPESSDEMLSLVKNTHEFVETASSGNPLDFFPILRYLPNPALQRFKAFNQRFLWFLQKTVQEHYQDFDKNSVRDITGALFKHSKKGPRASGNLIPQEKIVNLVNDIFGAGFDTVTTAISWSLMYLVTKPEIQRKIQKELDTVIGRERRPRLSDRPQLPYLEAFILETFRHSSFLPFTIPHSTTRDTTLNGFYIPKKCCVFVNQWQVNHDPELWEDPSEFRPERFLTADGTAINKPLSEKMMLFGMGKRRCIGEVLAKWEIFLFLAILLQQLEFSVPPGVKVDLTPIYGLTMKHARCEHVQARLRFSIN

[9] = Drug concentration in Sprague-Dawley rat brain by LC-MS/MS analysis; type: ADME, tissue-based; settings: in vivo
[10] = Hepatic clearance in rat liver microsomes by LC-MS/MS analysis; type: ADME, Microsome
[11] = Cmax in nude mouse at 4 mg/kg, po measured for 24 hrs by LC-MS/MS analysis; type: ADME, organism-based; parameters: dose 4 mg/kg, route oral; settings: in vivo
[12] = Tmax in Beagle dog at 2 mg/kg, po measured for 24 hrs by LC-MS/MS analysis; type: ADME, organism-based, Canis lupus familiaris; settings: in vivo
[13] = Protein binding in human plasma; type: ADME, cell-free; settings: read-out: PPB (converted)
[14] = test system: Rattus norvegicus; assay: Anti-premature ejaculation activity in anesthetized oxytocin-induced uterine contraction Sprague-Dawley rat model assessed as decrease in intraluminal uterine pressure at 100 mg/kg, po treated for 20 mins and 1 hr later treated with oxytocin and measured for 15 to 30 mins relative to control; type: functional
[15] = Clearance in Beagle dog at 1 mg/kg, iv measured for 24 hrs by LC-MS/MS analysis; type: ADME, organism-based, Canis lupus familiaris; settings: in vivo
[16] = Cmax in Sprague-Dawley rat at 30 mg/kg, po measured for 24 hrs by LC-MS/MS analysis; type: ADME, organism-based; parameters: dose 30 mg/kg, route oral; settings: in vivo
[17] = AUC (0 to 24 hrs) in Sprague-Dawley rat at 30 mg/kg, po by LC-MS/MS analysis; type: ADME, organism-based; parameters: dose 30 mg/kg, time < 24 hr, route oral; settings: in vivo

COCc1nnc(N2C[C@@H]3C[C@]3(c3ccc(F)cc3Cl)C2)n1-c1ccc(OC)nc1
AUC(0-t) at 24 h [1]: 3830 ng·h/mL | half-life [2]: 4.64 h | inhibition in vivo at 30 mg/kg [3]: 65% | Activity [4]: Non-Toxic | IC50 [5]: > 30 µM | CLhep predicted [6]: 77.4 mL/min/kg | Kp uu [7]: 0.188 | IC50 [8]: > 30 µM | Ct [9]: 229 ng/g | CLhep predicted [10]: 54.9 mL/min/kg | Cmax [11]: 330 ng/mL | Tmax [12]: 0.75 h | fraction unbound [13]: 0.0352 | inhibition in vivo at 100 mg/kg [14]: 77.5% | clearance [15]: 7.2 mL/min/kg | Cmax [16]: 3300 ng/mL | AUC(0-t) at 24 h [17]: 16100 ng·h/mL
